Results published in patent US20150064221A1, “COMPOUNDS HAVING IMMUNOMUDULATOR ACTIVITY” (priority 2012, published 2015).
“Also recorded” adds a separate entry of the source. Where two headings read alike, the source gives them in different places.

Assays:
[1] = Placebo-controlled ascending single-dose study in healthy subjects (CAT001); format: in vivo, human; conditions: for Cmax / half-life / AUC / Tmax / AUC(0-t): human, in vivo, oral; for AUC(0-t): read-out: AUC (0-24)
Method: FIG. 21. […] Subjects were administered from 1 mg to 800 mg of VGX1027.
A placebo-controlled, ascending single-dose study was performed to evaluate the safety and pharmacokinetics of VGX-1027 in healthy human subjects. Study was performed upon 7 groups of subjects: group 1: 1 mg of VGX-1027 after fasting; group 2: 10 mg of VGX-1027 after fasting; group 3: 100 mg of VGX-1027 after fasting; group 4: 200 mg of VGX-1027 after fasting; group 5: 400 mg of VGX-1027 after fasting; group 6: 800 mg of VGX-1027 after fasting; and group 7: 100 mg of VGX-1027 after fasting, and after fed.

[2] = test system: oxazolone-induced hypersensitivity; assay: Oxazolone-induced dermatitis; format: in vivo, mice
[3] = test system: DNBS-induced colitis; assay: DNB/DNBS-induced colitis; format: in vivo, mice
Method: Mice were injected with DNBS into the rectum and administered VGX-1027 an hour later; 4 days after, the mice were sacrificed, and the colons were isolated and analyzed. Variation in total body weight (A), stool consistency (B), macroscopic score (C), necrotic areas 9D), colon weight (E), and amount of cytokines in colon homogenate were determined Macroscopic score was determined by the following criteria: 0=no damage; 1=localized hyperaemia and/or oedema; 2=linear ulcer<half of the width of the colon; 3=linear ulcer>half the width of the colon; 4=circular ulcer<1 cm; 5=circular ulcer between 1 and 2 cm; 6=circular ulcer>2 cm.
Within 5 days after challenge with dinitrobenzene sulfonic acid (DNB), mice develop colitis. The disease severity is evaluated based on a macroscopic score. The vehicle-treated control mice and untreated mice developed colitis with a predictable and progressive increase in inflammation and body weight loss.
The colons of the control mice and of the VGX-1027 treated mice were removed, sectioned, fixed, and stained with hematoxylin and eosin. […] The tissue myeloperoxidase activity is a well established marker to assess the inflammatory cell (mainly neutrophils) infiltration. […] We counted an average of 8.9±1.2 (means±SD) cells/high power field of DNB-induced animals, whereas there were only 3.37±0.8 cells/high-power field in DNB-induced animals pretreated with VGX-1027 (p<0.0001).
DNBS challenge of mice induced clinical features of colitis including weight loss, diarrhea, intestinal damage, and necrotic regions (FIG. 11a-d). […] An increase in the weight of the colon is an indirect measure of increased thickness of the walls due to inflammation.

[4] = test system: Purified CD4 T cells; assay: Th17 T cell development from purified CD4 T cells; format: cell-based; conditions: 10 mM
Method: Purified CD4 T cells (CD3^+ CD4^+ CD45RA^+ CD25^− HLA−DR^−) were incubated with 10 μg/ml of IL-2, 10 ng/mL of IL-1β, 10 ng/ml of IL-23, 1 ug/ml of anti-IL-4, 1 ug/mL of anti-IFNγ and anti-CD3/CD28 activation beads at a ratio of 1 bead per cell plus TGF-β (1 ng/mL). On day 6, the cells were incubated in the presence of 50 ng/ml of PMA and 500 ng/ml of ionomycin for 5 hours. The cells were analyzed for intracellular staining of IL-17A and IFNγ. (A) FACS analysis of CD4+ and IL-17+ cells with the percentage shown in the upper right quadrant. (B) Mean Fluorescent Intensity (MFI) of IL-17+ T cells. (C) Concentration of IL-17 in the media. VGX-1027 concentration was 10 mM.
Although inhibition of Th17-promoting cytokine production from DCs is likely to contribute to the decrease of Th17 T cell development, the potential limitation with this mechanism is that other cells may be compensating for the production of Th17-promoting cytokines. Therefore, the direct effect of VGX-1027 was tested on the differentiation of naïve CD4 T cells into Th17 T cells. In vitro generation of Th17 T cells requires TGF-β, IL-1β, IL-6, and either IL-21 or IL-23. Th17 T cells was assessed with purified CD4 T cells (CD3+ CD4+ CD45RA+ CD25− HLA−DR−) with or without VGX-1027.

[5] = test system: Normal human PBMCs; assay: Ex vivo immune effects in PBMCs with plasma of dosed subjects; format: cell-based; conditions: LPS 5 μg/ml + plasma of 5th day after dosing
Method: Normal human PBMCs were isolated and cultured in the presence of LPS (5 μg/ml) with or without VGX-1027 treated plasma. Plasma samples were obtained by blood collection before and on the 5th day after VGX-1027 dosing in steady state. Cell free supernateants were analyzed for production of TNF-α and IL-1β 24 hours post treatment. Cytokine levels (pg/ml) were assayed by ELISA. Representative results were correlated with pro-inflammatory cytokine inhibition.

[6] = 1 mg, single dose 1 mg, fasted, geometric mean
[7] = 10 mg, single dose 10 mg, fasted, geometric mean
[8] = 100 mg, Fasted vs Fed: 100 mg fasted, geometric mean
[9] = 100 mg, Fasted vs Fed: 100 mg fed, geometric mean
[10] = 100 mg, single dose 100 mg, fasted, geometric mean
[11] = 200 mg, single dose 200 mg, fasted, geometric mean
[12] = 400 mg, single dose 400 mg, fasted, geometric mean
[13] = 800 mg, single dose 800 mg, fasted, geometric mean
[14] = elicitation phase: one hour after second oxazolone exposure
[15] = treated during or before the sensitization phase
[16] = DNBS, treatment from 1 hour after DNBS

For `O=C(O)CC1CC(c2ccccc2)=NO1` (stereo not shown) [VGX-1027, 3-phenyl-4,5-dihydro-5-isoxazoleacetic acid], the “Grade 3 or 4 AEs” value ([1]; human studies) was “No Grade 3 or 4 AEs were reported”, the SAEs ([1]; human studies) was “no SAEs were reported” and the Cmax [1, 6] was 50 ng/mL. It also gave a half-life [1, 6] of 432 min, an AUC ([1]; 1 mg, single dose 1 mg, fasted, geometric mean, read-out: AUC) of 460 ng·h/mL and a Tmax ([1]; 1 mg, single dose 1 mg, fasted, median) of 1 h. The Cmax [1, 7] was 1100 ng/mL, the half-life [1, 7] was 294 min and the AUC ([1]; 10 mg, single dose 10 mg, fasted, geometric mean, read-out: AUC) was 4430 ng·h/mL. For the same molecule, the Tmax ([1]; 10 mg, single dose 10 mg, fasted, median) was 0.5 h, the Cmax [1, 8] was 6500 ng/mL and the half-life [1, 8] was 354 min. For the same molecule, the AUC ([1]; 100 mg, Fasted vs Fed: 100 mg fasted, geometric mean, read-out: AUC) was 37800 ng·h/mL, the Tmax ([1]; 100 mg, Fasted vs Fed: 100 mg fasted, median) was 1.25 h and the Cmax [1, 9] was 4600 ng/mL. It also gave a half-life [1, 9] of 378 min, an AUC ([1]; 100 mg, Fasted vs Fed: 100 mg fed, geometric mean, read-out: AUC) of 55700 ng·h/mL and a Tmax ([1]; 100 mg, Fasted vs Fed: 100 mg fed, median) of 3.5 h. It also gave a Tmax ([1]; 100 mg, Single Dose (CAT001) 100 mg) of 1.8 h, a Cmax ([1]; 100 mg, Single Dose (CAT001) 100 mg, Geo Mean) of 9070 ng/mL and a Cmax [1, 10] of 9100 ng/mL. It also gave a half-life [1, 10] of 528 min, an AUC ([1]; 100 mg, single dose 100 mg, fasted, geometric mean, read-out: AUC) of 74600 ng·h/mL and a Tmax ([1]; 100 mg, single dose 100 mg, fasted, median) of 1.75 h. It also gave a Tmax ([1]; 200 mg, Single Dose (CAT001) 200 mg) of 1.5 h, a Cmax ([1]; 200 mg, Single Dose (CAT001) 200 mg, Geo Mean) of 15700 ng/mL and an AUC ([1]; 200 mg, Single Dose (CAT001) 200 mg, Geo Mean, read-out: AUC (AUC to 12 hours)) of 78500 ng·h/mL. The Cmax [1, 11] was 15700 ng/mL, the half-life [1, 11] was 462 min and the AUC ([1]; 200 mg, single dose 200 mg, fasted, geometric mean, read-out: AUC) was 111000 ng·h/mL. It also gave a Tmax ([1]; 200 mg, single dose 200 mg, fasted, median) of 1.5 h, a Cmax [1, 12] of 23800 ng/mL and a half-life [1, 12] of 402 min. For the same molecule, the AUC ([1]; 400 mg, single dose 400 mg, fasted, geometric mean, read-out: AUC) was 155000 ng·h/mL, the Tmax ([1]; 400 mg, single dose 400 mg, fasted, median) was 1.25 h and the Cmax [1, 13] was 43200 ng/mL. It also gave a half-life [1, 13] of 474 min, an AUC ([1]; 800 mg, single dose 800 mg, fasted, geometric mean, read-out: AUC) of 330000 ng·h/mL and a Tmax ([1]; 800 mg, single dose 800 mg, fasted, median) of 2 h. For the same molecule, the AUC(0-t) ([1]; Single Dose (CAT001) 100 mg, Geo Mean) was 66800 ng·h/mL, the AUC(0-t) ([1]; Single Dose (CAT001) 200 mg, Geo Mean) was 98400 ng·h/mL and the tolerability in humans ([1]; oral pill) was “safe and well-tolerated”. The dosing toxicities ([1]; up to 800 mg QD single dose) was “No dosing toxicities were observed”, the ear thickness [2, 14] was “significant decrease” and the ear weight [2, 14] was “not in weight”. The ear thickness [2, 15] was “significantly suppressed”, the ear weight [2, 15] was “significantly suppressed” and the “increase in colon weight” value ([3]; DNB colitis) was “significantly lower”. The weight loss ([3]; DNB colitis) was “significant reduction”, the “tissue damage (histology)” value ([3]; DNB colitis, treated before induction) was “significantly reduced” and the “progression of inflammatory colitis” value ([3]; DNB, p<0.001) was “significantly attenuated”. The neutrophils infiltrating ([3]; DNB-induced animals pretreated, means±SD) was 3.37±0.8 cells/high-power field, the “IL-18 in colon homogenates” value [3, 16] was “decreased amounts” and the “TNF-α in colon homogenates” value [3, 16] was “decreased amounts”. The colon weight [3, 16] was “decreased”, the “features of colitis / degree of protection” value ([3]; DNBS, treatment from 1 hour after until 4 days after DNBS) was “markedly improved; also recorded: comparable to that afforded by 1 mg/kg of dexamethasone” and the “inflammatory cell infiltration (myeloperoxidase activity)” value ([3]; colon tissue, 5 days after induction, p<0.0001) was “significant reduction”. The “IL-17 expressed in a Th17 T cell (MFI)” value [4] was “decrease”, the “IL-17 in the culture media” value [4] was “decrease” and the IL-1β levels [5] was “repressed to levels comparable to the negative controls”. The TNF-α levels [5] was “repressed to levels comparable to the negative controls”.
